One data set has as its target T1, Mcl-1 (Homo sapiens, UniProt Q07820).
T1 construct: made in house; host or cells: E. coli
Nature of the data set: Fluorescence polarization assay, Bim BH3 peptide binding to GST-Mcl-1. The conditions noted are these: fluorescence polarization, Bim-BH3-FITC peptide, GST-Mcl-1; read-out: IC50, inhibition of Bim-BH3 peptide binding to Mcl-1. The text has this: (§1) A nineteen amino acid peptide, corresponding to the BH3 domain of Bim, with the sequence FITC-GGGIAQELRRIGDEFNAY (SEQ ID NO: 1) was labeled with the tluorophore FITC according to the manufacturer's instructions (Molecular Probes, Eugene, Oreg.). This sequence was identified as being able to bind to purified Bcl-xL protein (Sattler et al. (1997) Science 275(5302): 983-86) and to have biological activity in cells (Holinger et al. J. Biol. Chem. 274; 13298-1330).
(§2) In addition, recombinant GST -Mcl-1 and GST-Bcl-xL fusion proteins were generated in E.coli and purified using glutathione-sepharose beads using conventional techniques known to those skilled in the fields of biochemistry and molecular biology, (methods for preparation are described in Strategies for Protein Purification and Characterization, Marshak, D, Kadonga, J, Burgess R, Knuth, M, Brennan, W, Sue-Hwa, L, CSH press, Cold Spring Harbor, N.Y.). Binding of the recombinant proteins to the fluorescent Bim BH3 domain was confirmed by titration of increasing concentrations of the recombinant proteins against a constant amount of labeled Bim peptide (16.65 nM). Quantitation of binding was accomplished by FP assay with mP measurements made on the Analyst-GT reader (Molecular Devices, Sunnyvale, Calif.).
Further, the ability of compound A to disrupt the interaction between the fluorescent Bim BH3 peptide and the two fusion proteins was assessed using a fluorescence polarization assay. The Bim peptide (in solution at 4 nano-Molar) and either GST-Mcl-1 (in solution at 12.5 nM) or GST-Bcl-xL (in solution at 11.8 nM) were first combined together in phosphate buttered saline buffer, and then the compound solution in DMSO was added to final concentrations ranging from 10 μM to 0.1 nM). Normally the unbound Bim polypeptide results in polarization of 5 mP units. Upon binding of the GST-Bcl-xL and GST-Mcl-1 fusion protein, polarization increased to 100 mP units.
Experiments are performed using the fluorescence polarization assay as described in Example 2. Either Bcl-xL or Mcl-1 fusion proteins were titrated and maximum mp shift indicate binding concentrations for drug titration studies, as described in Example 2. Compound II-19, was titrated from 10 μM to 0.1 nM in 2 fold serial dilution into the peptide/protein solution. The IC50 for blocking each BH3 peptide from Mcl-1 are assessed using FP, as described in Example 2.
Experiments are performed using the fluorescence polarization assay as described in Example 2. Either GST-Bcl-xL or GST-Mcl-1 fusion proteins were titrated and maximum mp shift indicate binding concentrations for drug titration studies, as described in Example 2. Compound II-20, was titrated from 10 μM to 0.1 nM in 2-fold serial dilution into the peptide/protein solution. The IC50 for blocking each BH3 peptide from Mcl-1 are assessed using FP, as described in Example 2.

The target in another data set is T2, Bcl-xL (Homo sapiens, UniProt Q07817).
T2 construct: made in house; host or cells: E. coli
T2 sequence (Q07817 whole entry): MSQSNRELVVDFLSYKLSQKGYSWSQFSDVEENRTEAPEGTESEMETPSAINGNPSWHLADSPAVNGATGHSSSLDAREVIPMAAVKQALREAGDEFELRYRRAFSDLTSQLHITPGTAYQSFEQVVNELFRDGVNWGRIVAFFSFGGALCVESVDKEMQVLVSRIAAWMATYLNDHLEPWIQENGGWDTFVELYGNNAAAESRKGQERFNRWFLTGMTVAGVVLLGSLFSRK
The data set is described as follows: Fluorescence polarization assay, Bim BH3 peptide binding to GST-Bcl-xL. The conditions noted are these: Bim-BH3-FITC peptide, read-out: IC50, inhibition of Bim-BH3 peptide binding to Bcl-xL.
Description: as §1, §2
Further, the ability of compound A to disrupt the interaction between the fluorescent Bim BH3 peptide and the two fusion proteins was assessed using a fluorescence polarization assay. […]
(§3) Experiments are performed using the fluorescence polarization assay as described in Example 2. […] The IC50 for blocking each BH3 peptide from Mcl-1 are assessed using FP, as described in Example 2.
as §3
Background: Polarisation of emitted light reports the rotation of a fluorescent probe.

For data set [1], the system named is NCI-H929 multiple myeloma cell line. The data set is described as follows: Cell viability MTS assay, NCI-H929. To be noted: Homo sapiens, 48 hours, read-out: EC50, cell killing in NCI-H929. Type of data set: cell-based. How it is done:
The lymphoid derived cell lines DHL-6 and DHL-10 were obtained from Anthony Letai of the Dana Father Cancer Research Institute, Boston, Mass. The […] derived cell line NCP-H929 was obtained irons, the NIH/NCI cell repository. AML-3 cells were obtained from Dr. Michael Andreef (MD Anderson Cancer Center, Houston, Tex.). Cells were grown in RPMI 1640 medium (GIBCO-BRL) supplemented with Pen-strep-glutamine (Gibco 10378) and 5% fetal bovine serum.
Cells were expanded in tissue culture in appropriate media and then subcultured into 96-well plates at a seeding density of 20,000-40,000 cells per well, and cells were treated with one or more compounds that were titrated info appropriate medium with FCS. Cell lines were treated with compound A at concentrations ranging from 25 μM to 25 nM. The BH3-mimetic obatoclax (Nguyen M et al. (2007), Proc. Natl. Acad. Sci. USA 104:19512-19517) was also tested against the SUDHL-6, SUDHL-10, and NCI-H929 cell lines. Cells were treated for 48 hours and scored for viability using the MTS assay (Promega). Growth inhibition was indicated as a percentage of control cell growth. Growth was determined by measuring the A570 (control cells)—A570 (treated cells)/A570 (control cells). EC50 values were calculated using Graphpad Prizm software.
On the technique in general: Tetrazolium dyes change colour on reduction, which living cells bring about.

A short description of data set [2]: Dose escalation study in SCID mice. Type of data set: in vivo. The conditions noted are these: 60 mg/kg. Here is the method:
Compound A was tested in SCID mice at SRI International, Menlo Park, Calif. A dose escalation study determined that that the high dose of 60 mg/kg was well-tolerated and could be safely used for the xenograft study for all 3 test articles.

A further data set relates to CCRF-CEM cells. The data set is described as follows: CCRF-CEM leukemia xenograft study in SCID mice. To be noted: 60 mg/kg I.P. 5x/week. Type of data set: in vivo, mouse. How it is done: The T Lymphoblastic Leukemic Cell Line CCRF-CEM was purchased from American Type Culture Consortium (ATCC). These cells were maintained in RPMI-1640 medium supplemented with 10% of fetal bovine serum, 2 mM glutamine, and 1 mM sodium pyruvate. The cells were cultured at 37° C. in 95% air/5% CO2 and 100% humidity. Medium in the culture was changed every 48 h and cells were passaged weekly.
For cell implantation to mice, cells were harvested by centrlfugation. Cell pellets were resuspended in PBS and counted using a hemacytometer and Trypan Blue dye to measure the number of viable cells in the suspension. The harvested cells were washed once with PBS and resuspended in serum-free medium at a density of 1×10^7 cells/100 μl.
For this xenograft study, animals were divided into 4 groups of 10 mice each. Groups were treated with test compounds by IP Injection at 60 mg/kg with or vehicle control.
Mice were inoculated with the CCRF-CEM cells (10,000,000 cells) were by tail vein injection. The cell suspensions had the tendency to form clumps. Therefore, during cell inoculation, the cell suspensions had to be mixed well before drawing into the syringe. Gauge 28 needles were used for the injection.
Test articles were dissolved in a mixture of DMSO/Cremophor/water (10:18:72) and administered to the animals in 100 μl aliquots 5× per week beginning 7 days after cells were transplanted into mice. Control dosage was performed under the same schedule.
Throughout the entire study, clinical observations were conducted daily for signs of leukemia development, including lethargy, ruffled fur, lack of responsiveness to stimuli, weight loss, and becoming moribund. On Day 21 after cell inoculation, blood samples were drawn from all groups. The white blood cells of all the blood samples were measured with a Nucleo Counter (ChemMetec, Denmark). […]
After 14 days of treatment, blood samples were taken from all the mice via orbital bleeding while mice were anesthetized using isoflurane inhalation. […] The number of white blood cells was then counted by standard methods.

Data set [3] can be described thus: Pharmacokinetics of compound A in the mouse. To be noted: for plasma clearance: i.p.; for half-life: plasma, ip. Type of data set: in vivo. Here is the method: Pharmacokinetic studies were conducted on compound A to assess plasma clearance and distribution in the mouse. Compound A was administered i.p. (as in the xenograft study) at 10 mg/kg.
Pharmacokinetic studies were conducted on compound A to assess plasma clearance and distribution in the mouse. Compounds were administered i.p. (as in the xenograft study) at 19 mg/kg.

Another data set can be described thus: Microsome stability. Type of data set: in vitro ADME.

Values joined by “and” are separate entries in the source; they are usually repeats but may differ in a detail not shown here. Equal entries are not always repeated. “Also recorded” adds a separate entry of the source.

T1 sequence (Q07820 whole entry): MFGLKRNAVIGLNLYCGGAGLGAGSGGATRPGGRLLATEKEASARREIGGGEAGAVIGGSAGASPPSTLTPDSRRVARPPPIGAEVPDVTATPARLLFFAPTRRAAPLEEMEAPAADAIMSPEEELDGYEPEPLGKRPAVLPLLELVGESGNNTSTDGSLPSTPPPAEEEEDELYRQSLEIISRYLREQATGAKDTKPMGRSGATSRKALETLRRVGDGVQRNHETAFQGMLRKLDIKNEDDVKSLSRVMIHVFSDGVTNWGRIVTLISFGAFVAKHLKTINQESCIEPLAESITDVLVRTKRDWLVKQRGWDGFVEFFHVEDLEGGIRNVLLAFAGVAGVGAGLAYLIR

With `COc1cc(-c2ccc(Nc3ccccc3C(=O)O)c(OC)c2)ccc1Nc1ccccc1C(=O)O` [Compound A, redoxal], the IC50 – broadly, the concentration at which inhibition is half-maximal – on Mcl-1 is < 500 nM and 480 nM; on Bcl-xL, more than 16000 nM. In data set [1], the EC50 (usually the concentration needed to bring the measured effect to its halfway point) stood at 1000 nM. Moreover, in data set [2], the “tolerability of the high dose” value is “well-tolerated”. In addition, the “survival outcome vs vehicle control” value with CCRF-CEM cells was “statistically significant; also recorded: significantly improved”. Further, the “white blood cells vs vehicle control” value in the data set on CCRF-CEM cells (after 14 days of treatment (Day 21), P<0.02 Students' t test) is “significantly reduced”. In addition, the “mice still alive on Day 31” value with CCRF-CEM cells (all vehicle mice died by Day 31) came to 60%. In addition, the plasma clearance in data set [3] (10 mg/kg) and in data set [3] (19 mg/kg as printed) was 1.3 mL/min/kg throughout. For the same compound, the half-life in data set [3] (10 mg/kg) and in data set [3] (19 mg/kg as printed) was 2.1 h throughout. Besides, the microsome stability entry in the data set “Microsome stability” was “excellent”.

Source of the values: patent US9351971B2, “Substituted 2,2′-biphenazines for treating diseases” (Eutropics Pharmaceuticals, Inc., priority 2010, dated 2016).
